We go through 18 molecules from ChEMBL document CHEMBL5107997, “Discovery and biological evaluation of 1-{2,7-diazaspiro[3.5]nonan-2-yl}prop-2-en-1-one derivatives as covalent inhibitors of KRAS G12C with favorable metabolic stability and anti-tumor activity” (Bioorg Med Chem, 2022).

In one data set the target is GTPase KRas (Homo sapiens, UniProt P01116, G12C). As to the kind of experiment: Inhibition of biotinylated Avi-tagged GDP-bound KRAS G12C mutant (1 to 185 residues) (unknown origin) assessed as inhibition of KRAS G12C mutant/SOS/GST-tagged c-Raf complex formation incubated for 1 hr and measured by fluorescence based assay.
Data set [1] can be described thus: Aqueous solubility of the compound in pH 6.8 JP2 fluid measured after 20 hrs by disintegration test. It is filed as physicochemical.
Data set [2] in a line: Intrinsic clearance in mouse liver microsomes at 0.1 to 0.2 umol/L measured after 30 mins in presence of NADPH by LC-MS/MS analysis. It is filed as ADME, Microsome. As to conditions: dose 0.1-0.2 µmol/L, read-out: CLH. In general terms: Liver microsomes are a subcellular fraction often used to study metabolism.
Data set [3] in a line: Downregulation of pERK levels in human NCI-H1373 cells measured after 2 hrs by EISA. It is filed as functional, cell-based. As to conditions: NCI-H1373, 2 h.
For data set [4], the system named is NCI-H1373. As to the kind of experiment: Growth inhibition of human NCI-H1373 cells assessed as cell viability after 6 days by CellTiter-Glo assay. It is filed as functional, cell-based. As to conditions: NCI-H1373, 144 h.
Data set [5] is described as follows: Intrinsic clearance in human liver microsomes at 0.1 to 0.2 umol/L measured after 30 mins in presence of NADPH by LC-MS/MS analysis. It is filed as ADME, Microsome. As to conditions: dose 0.1-0.2 µmol/L, read-out: CLH.
The test system of another data set is A-375. As to the kind of experiment: Growth inhibition of human A-375 cells assessed as cell viability after 6 days by CellTiter-Glo assay. In kind it is functional, cell-based. As to conditions: A-375, 144 h. Background: In ATP-based viability assays light output follows the ATP content of the culture.
Data set [6] can be described thus: Downregulation of pERK levels in human A-375 cells measured after 2 hrs by EISA. In kind it is functional, cell-based. The following applies: A-375, 2 h.
Data set [7] can be described thus: Drug uptake in tumor of nude mouse xenografted with human NCI-H1373 cells at 100 mg/kg, po administered as single dose and measured at 6 hr by LC/MS-MS analysis. It is filed as ADME, organism-based, Neoplasm. As to conditions: read-out: Drug uptake. Background: In xenograft studies the graft and the host belong to different species.
Data set [8] is described as follows: Plasma concentration in nude mouse xenografted with human NCI-H1373 cells at 100 mg/kg, po administered as single dose and measured at 6 hr by LC/MS-MS analysis. It is filed as ADME, organism-based.
In data set [9] the test system is NCI-H1373. Briefly: Antitumor activity against human NCI-H1373 cells xenografted in nude mouse assessed as inhibition of p-ERK levels at 33 mg/kg, sc administered as single dose and measured after 6 hrs. It is filed as functional.
The subject of data set [10] is NCI-H1373. Briefly: Antitumor activity against human NCI-H1373 cells xenografted in nude mouse assessed as tumor growth inhibition at 30 mg/kg, sc administered as single dose. In kind it is functional. As to conditions: read-out: TGI.
Data set [11] is described as follows: Drug uptake in tumor of nude mouse xenografted with human NCI-H1373 cells at 30 mg/kg, sc administered as single dose and measured at 6 hr by LC/MS-MS analysis. It is filed as ADME, organism-based, Neoplasm. The following applies: read-out: Drug uptake.
Data set [12] in a line: Plasma concentration in nude mouse xenografted with human NCI-H1373 cells at 30 mg/kg, sc administered as single dose and measured at 6 hr by LC/MS-MS analysis. In kind it is ADME, organism-based.
Data set [13] in a line: Toxicity in nude mouse xenografted with human NCI-H1373 cells assessed as effect on body weight at 3 to 30 mg/kg, sc. It is filed as organism-based. The following applies: in vivo, dose 3-30 mg/kg.
Data set [14] in a line: Plasma concentration in nude mouse xenografted with human NCI-H1373 cells at 100 mg/kg, po administered as single dose and measured at 1 hr by LC/MS-MS analysis. It is filed as ADME, organism-based.
The test system of data set [15] is NCI-H1373. Briefly: Antitumor activity against human NCI-H1373 cells xenografted in nude mouse assessed as tumor growth inhibition at 10 mg/kg, sc administered as single dose. In kind it is functional. The following applies: read-out: TGI.
For data set [16], the system named is NCI-H1373. As to the kind of experiment: Antitumor activity against human NCI-H1373 cells xenografted in nude mouse assessed as tumor growth inhibition at 3 mg/kg, sc administered as single dose. As to conditions: read-out: TGI. It is filed as functional.
The nature of data set [17]: Plasma concentration in nude mouse xenografted with human NCI-H1373 cells at 30 mg/kg, sc administered as single dose and measured at 1 hr by LC/MS-MS analysis. It is filed as ADME, organism-based.
For data set [18], the system named is GTPase KRas (Homo sapiens), P01116 [G12C]. As to the kind of experiment: Inhibition of biotinylated Avi-tagged GDP-bound KRAS G12C mutant (1 to 185 residues) (unknown origin) assessed as inhibition of KRAS G12C mutant/SOS/GST-tagged c-Raf complex formation at 3 uM incubated for 1 hr and measured by fluorescence based assay relative to control.

As usually defined, the IC50 is the concentration that gives 50% inhibition. Turning to `C=CC(=O)N1CC2(CCN(c3nc(OCCCN4CCCCC4)nc4c(F)c(-c5c(C)ccc6[nH]ncc56)c(Cl)cc34)CC2)C1`, on GTPase KRas, the IC50 was 370 nM.

Regarding `C=CC(=O)N1CC2(CCN(c3nc(OCCCN(C)C)nc4c(F)c(-c5c(C)ccc6[nH]ncc56)c(Cl)cc34)CC2)C1`, the IC50 on GTPase KRas is 260 nM.

Regarding `C=CC(=O)N1CCC2(C1)CN(c1nc(NC3CCN(C)CC3)nc3c(F)c(-c4c(C)ccc5[nH]ncc45)c(Cl)cc13)C2`, the IC50 at GTPase KRas was found to be 18000 nM.

By solubility is commonly meant how much of the substance goes into solution per volume. `C=CC(=O)N1CC2(CCN(c3nc(OC4CCN(C)CC4)nc4c(F)c(-c5c(C)ccc6[nH]ncc56)c(Cl)cc34)CC2)C1` returned a solubility at 20 h in [1] greater than 100 µM. The CLint scaled in [2] was 115 mL/min/kg; in data set [5], 35 mL/min/kg. In addition, the IC50 was 96 nM in data set [3], 100 nM in the data set on NCI-H1373 [4], 2900 nM in the data set with A-375 and 70 nM on GTPase KRas.

As for `C=CC(=O)N1CC2(CCN(c3nc(OCCCN4CCOCC4)nc4c(F)c(-c5c(C)ccc6[nH]ncc56)c(Cl)cc34)CC2)C1`, the IC50 on GTPase KRas was 650 nM.

As to `C=CC(=O)N1CC2(CCN(c3nc(OC4CCOCC4)nc4c(F)c(-c5c(C)ccc6[nH]ncc56)c(Cl)cc34)CC2)C1`, the IC50 on GTPase KRas is 2100 nM.

Consider `C=CC(=O)N1CCN(c2nc(NC3CCN(C)CC3)nc3c(F)c(-c4c(C)ccc5[nH]ncc45)c(Cl)cc23)CC1`, for which the IC50 in data set [6] is greater than 10000 nM; in data set [3], 430 nM; in the data set on NCI-H1373 [4], 650 nM; in the data set on A-375 it was 1100 nM; on GTPase KRas, 470 nM.

For the molecule `C=CC(=O)N1CC2(CCN(c3nc(N(C)C4CCN(CC)CC4)nc4c(F)c(-c5c(C)ccc6[nH]ncc56)c(Cl)cc34)CC2)C1`, at GTPase KRas, the IC50 was found to be 3200 nM.

For `C=CC(=O)N1CC2(CCN(c3nc(SC4CCN(CC)CC4)nc4c(F)c(-c5c(C)ccc6[nH]ncc56)c(Cl)cc34)CC2)C1`, the IC50 at GTPase KRas was 940 nM.

In the case of `C=CC(=O)N1CC2(CCN(c3nc(NC4CCN(C)CC4)nc4c(F)c(-c5c(C)ccc6[nH]ncc56)c(Cl)cc34)C2)C1`, the IC50 in [6] was greater than 10000 nM; in [3] it was 550 nM; with NCI-H1373 [4], 950 nM; with A-375, 4000 nM; on GTPase KRas, 160 nM.

As to `CCN1CCC(Oc2nc(N3CCC4(CC3)CN(C(=O)/C=C/CN3CCOCC3)C4)c3cc(Cl)c(-c4c(C)ccc5[nH]ncc45)c(F)c3n2)CC1`, on GTPase KRas, the IC50 was greater than 10000 nM.

In the case of `C=CC(=O)N1CCC2(CC1)CN(c1nc(NC3CCN(C)CC3)nc3c(F)c(-c4c(C)ccc5[nH]ncc45)c(Cl)cc13)C2`, on GTPase KRas, the IC50 was greater than 30000 nM.

Turning to `C=CC(=O)N1CC2(CCN(c3nc(OCC4CCN(C)CC4)nc4c(F)c(-c5c(C)ccc6[nH]ncc56)c(Cl)cc34)CC2)C1`, the IC50 at GTPase KRas amounted to 130 nM.

As to `C=CC(=O)N1CC2(CCN(c3nc(OC4CCN(CC)CC4)nc4c(F)c(-c5c(C)ccc6[nH]ncc56)c(Cl)cc34)CC2)C1`, the solubility at 20 h in data set [1] is greater than 100 µM. Besides, the concentration at 6 h in data set [7] was 70 nM; in [8], 130 nM; in [11], 740 nM; in [12], 720 nM. Also, the inhibition in vivo at 33 mg/kg in the data set with NCI-H1373 [9] was found to be 63%. Besides, the CLint scaled turned out to be 115 mL/min/kg in data set [2] and 37 mL/min/kg in data set [5]. For the same molecule, in the data set on NCI-H1373 [10], the inhibition in vivo at 30 mg/kg was 92%. In addition, the IC50 in data set [3] was 140 nM; in the data set with NCI-H1373 [4], 120 nM; in the data set on A-375, 3500 nM; at GTPase KRas it was 77 nM. Besides, the Activity result in data set [13] is listed as “Non-Toxic”. Moreover, the figures for the concentration at 1 h in [14] and in data set [17] were 670 nM and 3800 nM, respectively. Besides, the inhibition in vivo at 10 mg/kg with NCI-H1373 [15] came out at 50%. The inhibition in vivo at 3 mg/kg in the data set on NCI-H1373 [16] amounted to 33%.

In the case of `C=CC(=O)N1CC2(CCN(c3nc(OC4(CN(C)C)CCC4)nc4c(F)c(-c5c(C)ccc6[nH]ncc56)c(Cl)cc34)CC2)C1`, the concentration for half-maximal inhibition (IC50) on GTPase KRas turned out to be 770 nM.

For `C=CC(=O)N1CC2(CCN(c3nc(OCCN(C)C)nc4c(F)c(-c5c(C)ccc6[nH]ncc56)c(Cl)cc34)CC2)C1`, at GTPase KRas, the IC50 is 340 nM.

Consider `C=CC(=O)N1CC2(CCN(c3nc(NC4CCN(C)CC4)nc4c(F)c(-c5c(C)ccc6[nH]ncc56)c(Cl)cc34)CC2)C1`, for which the IC50 was greater than 10000 nM in data set [6]; 380 nM in data set [3]; 390 nM in the data set on NCI-H1373 [4]; 2800 nM with A-375; 350 nM on GTPase KRas.

One may read the inhibition as the change of the read-out against control, counted positive when it falls. `C=CC(=O)N1CC2(C1)CN(c1nc(NC3CCN(C)CC3)nc3c(F)c(-c4c(C)ccc5[nH]ncc45)c(Cl)cc13)C2`: the inhibition in data set [18] was found to be 60%. In addition, the 50% inhibitory concentration (IC50) on GTPase KRas was 3000 nM.
